Measurements from patent US20220088042A1, “COMBINATION THERAPY INCLUDING SAPC-DOPS FOR THE TREATMENT OF PANCREATIC CANCER” (priority 2016, published 2022).

Legend:
MIA-PaCa-2 cells = test: Surface PS (annexin V-APC) and TUNEL apoptosis stain, MIA-PaCa-2 (FIG. 3B); format: cell-based, human
Procedure: (§1) FIG. 3. GEM exposure triggers PS externalization in pancreatic tumor cells. AsPC-1 (A) and Mia-PaCa-2 (B) cells were treated with varying doses of GEM for 24 h, TUNEL apoptosis stain was performed after surface PS staining with annexin V-APC. The overlay histograms show TUNEL-negative (non-apoptotic) cells. TUNEL positive [AsPC-1: CTL=0.3; GEM 10 nM=2.5; GEM 100 nM=4.6]; [MIA-PaCa-2: CTL=3.6; GEM 1 μM=21].
(§2) Importantly, in low surface PS cells a clear increase was evident using sub-toxic concentrations of GEM that caused <10% apoptosis.
(§3) Various cell types were analyzed for surface PS exposure by flow cytometry with annexin V-FTIC. Involvement of flippases in the regulation of surface PS exposure was analyzed by flippase activity assay. Total cellular PS was quantified by TLC separation of phospholipids and estimation of PS phosphorous. Orthotopic PDAC tumors were established by injecting human or murine PDAC cells into animal pancreas. In vivo bioluminescence and fluorescence imaging were performed to monitor tumor targeting and growth. The molecular mechanisms underlying the induction of apoptosis by SapC-DOPS were evaluated in cultured PDAC cells through measurements of cell viability, TUNEL, and flow cytometric DNA fragmentation.

AsPC-1 cells = test: Surface PS (annexin V-APC) and TUNEL apoptosis stain, AsPC-1 (FIG. 3A); format: cell-based, human; conditions: for TUNEL positive: 24 h (CTL=0.3)
Procedure: as §1, §2, §3

[1] = tested on: MIA PaCa-2 human pancreas tumor xenograft; test: MIA PaCa-2 human pancreas tumor xenograft model (Example 3); format: in vivo; conditions: for Day 35 TW (mg) ± SEM: Day 35 mean tumor weight, Q3Dx4
Procedure: SapC-DOPS was received from Bexion Pharmaceuticals, Inc. and were stored at […] until use. Separate aliquoted vials of SapC-DOPS for the 7.3 mg/kg dose were received. Separate aliquoted vials of vehicle were received, which contained DOPS and no SapC. Each vial was resuspended in 1.2 ml of sterile water for injection (Lot #JPJ551, 13/Braun Medical, Inc., Irvine Calif.). Once formulated, SapC-DOPS was delivered at a 10 ml/kg dose volume. SapC-DOPS and vehicle were formulated fresh daily and administered immediately after preparation.
Gemcitabine (Lot #A735891A) was manufactured by Eli Lilly and Co. (Indianapolis, Ind.) and diluted in a 0.9% NaCl solution (B. Braun Medical, Inc., Irvine, Calif., Lot #J0K465) to a concentration of 4 mg/ml to deliver a 40 mg/kg dose at a 10 ml/kg dose volume. All preparations were made fresh prior to their administration.
The MIA Paca-2 human pancreas tumor cell line was received from American Type Culture Collection (ATCC, Manassas, Va.). Cultures were maintained in RPMI-1640 (Hyclone, Logan, Utah) supplemented with 5% fetal bovine serum, and housed in a 5% CO2 atmosphere. The cultures were expanded in tissue culture flasks at a 1:4 split ratio until a sufficient amount of cells were harvested.
Female NCR nude mice (CrTac:NCR-Foxn1^nu) were supplied by Taconic (Germantown, N.Y.). Mice were received at four weeks' of age, 12-15 g in weight. All mice were acclimated for seven days prior to handling. The mice were housed in microisolator cages (Lab Products, Seaford, Del.) and maintained under specific pathogen-free conditions. The mice were fed PicoLab® irradiated mouse chow (Lab Diet, Richmond, Ind.) and autoclaved water was freely available. […]
Five days following inoculation, tumors were measured using calipers and tumor weight was calculated using the animal study management software, Study Director V. 1.7.54 k (Study Log)^1, Thirty mice with tumor sizes of 105-158 mg were pair-matched into three groups of ten mice each (Day 1). Body weights were recorded when the mice were pair-matched and were taken twice weekly thereafter in conjunction with tumor measurements. […]
On Day 35, tumors were collected from two randomly selected mice per group. […] The lungs were fixed in formalin (Lot #4117, Azer Scientific, Morgantown, Pa.) and sent to the Mayo Clinic Histology (Scottsdale, Ariz.) to be paraffin blocked process through H&E. The lungs were analyzed by a pathologist at Mayo Clinic with emphasis on evidence of granuloma on the lungs.
Mean tumor growth inhibition (TGI) was calculated utilizing the following formula (any tumors that regressed were not used in calculations): […]
The mean tumor shrinkage of each group was calculated and reported. […]

PDAC cells = test: Surface PS exposure by flow cytometry with annexin V; format: cell-based; conditions: chemotherapy treatment of PDAC cells
Procedure: as §3

`Nc1ccn([C@@H]2O[C@H](CO)[C@@H](O)C2(F)F)c(=O)n1` [Gemcitabine] was tested, and the “external PS in viable cells” value (MIA-PaCa-2 cells; 24 h, varying doses, moderate surface PS cell line) was “dose-dependent increase”, the TUNEL positive (MIA-PaCa-2 cells; GEM 1 μM, 24 h (CTL=3.6)) was 21 and the “external PS in viable cells” value (AsPC-1 cells; 24 h, varying doses, relatively low surface PS cell line) was “dose-dependent increase”. The TUNEL positive (AsPC-1 cells; GEM 10 nM) was 2.5, the TUNEL positive (AsPC-1 cells; GEM 100 nM) was 4.6 and the apoptosis (AsPC-1 cells; sub-toxic concentrations of GEM giving a clear PS increase in low surface PS cells) was under 10%. The “Total Deaths” value ([1]; 10 mice per group, study to Day 35) was 0, the “Day 35 TW (mg) ± SEM” value [1] was 936.0 ± 135.1 mg and the “Day 35 TW (mg) ± SEM” value ([1]; listed as gemcitabine) was 936.0 mg. The tolerability ([1]; mouse, in vivo) was “well tolerated” and the “surface PS levels” value (PDAC cells) was “increase surface PS levels”.
